Measured values reported in publication PMC6452631 (Journal of medicinal chemistry, 2017).
pEC50: −log10 of the molar value. Peptide text beside a SMILES is read from it. * marks the point of attachment. Cbz = O=C(OCc1ccccc1)*; Acryloyl = C=CC(=O)*

Key:
[1] = target: T1, hTG2 (Homo sapiens, UniProt P21980); assay: Colorimetric transamidase activity assay
T1 sequence (P21980 1-687): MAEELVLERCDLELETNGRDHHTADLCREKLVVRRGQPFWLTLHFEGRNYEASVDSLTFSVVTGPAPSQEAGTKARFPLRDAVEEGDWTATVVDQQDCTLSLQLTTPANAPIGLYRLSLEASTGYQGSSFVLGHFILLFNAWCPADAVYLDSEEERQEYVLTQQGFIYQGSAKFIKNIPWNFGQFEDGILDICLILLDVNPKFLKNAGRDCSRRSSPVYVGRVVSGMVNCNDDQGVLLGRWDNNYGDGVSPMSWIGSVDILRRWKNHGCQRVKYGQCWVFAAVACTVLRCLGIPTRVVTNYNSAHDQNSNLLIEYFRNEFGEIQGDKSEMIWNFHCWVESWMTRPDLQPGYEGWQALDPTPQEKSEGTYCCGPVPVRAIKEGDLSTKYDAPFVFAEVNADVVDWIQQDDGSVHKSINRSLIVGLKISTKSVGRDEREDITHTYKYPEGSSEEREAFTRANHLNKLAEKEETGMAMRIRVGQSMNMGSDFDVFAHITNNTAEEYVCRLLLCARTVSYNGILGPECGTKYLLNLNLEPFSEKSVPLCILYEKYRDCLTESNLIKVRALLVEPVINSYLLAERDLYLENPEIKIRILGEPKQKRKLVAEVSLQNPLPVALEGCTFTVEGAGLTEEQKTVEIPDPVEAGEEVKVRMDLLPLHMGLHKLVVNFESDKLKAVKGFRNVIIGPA

[2] = target: gplTG2; conditions: cited from earlier work; for K1 values: gplTG2, in words
[3] = target: T1, hTG2; conditions: pH 6.5
[4] = target: T1, hTG2; assay: In vitro GTP binding assay; conditions: inhibitor at 2KI, 30 min, 25 °C; 3 μM BODIPY GTP-γ-S
[5] = tested on: epidermal cancer stem (ECS) cells (SCC-13); assay: Cell invasion assay; format: cell-based, human
[6] = target: T1, hTG2; assay: Inhibition irreversibility; format: biochemical; conditions: compared to uninhibited hTG2
[7] = tested on: epidermal cancer stem (ECS) cells; conditions: cited from earlier work
[8] = tested on: mouse xenograft tumors initiated by injection of cancer stem cells; conditions: intraperitoneal injection, 20 mg/kg; cited from earlier work

C=CC(=O)NCCCC[C@H](NC(=O)OCc1ccccc1)C(=O)N1CCN(S(=O)(=O)c2cccc3ccccc23)CC1 [Compound 30, (S)-Benzyl 6-Acrylamido-1-(4-(naphthalen-1-ylsulfonyl)piperazin-1-yl)-1-oxohexan-2-yl-carbamate]
kinact less than that of 13 ([1]; hTG2): more than 3 fold

C=CC(=O)NCCCC[C@H](NC(=O)OCc1ccccc1)C(=O)NCC(=O)O [Compound 2, (S)-2-(6-Acrylamido-2-(((benzyloxy)carbonyl)amino)-hexanamido)acetic Acid] (Cbz-Lys(Acryloyl)-Gly-OH)
K1 values [2]: high nanomolar range | efficiency constants (kinact/KI) ([2]; gplTG2): 10^6 M^−1 min^−1

C=CC(=O)NCCCC[C@H](NC(=O)OCc1ccccc1)C(=O)O [Compound 1, (S)-6-Acrylamido-2-(((benzyloxy)carbonyl)amino)hexanoic Acid]
K1 values [2]: high nanomolar range

C=CC(=O)NCCCC[C@H](NC(=O)OCc1ccccc1)C(=O)N1CCOCC1 [Compound 59]
kinact [3]: 0.0245 s⁻¹

C=CC(=O)NCCCC[C@H](NC(=O)OCc1ccccc1)C(=O)N1CCN(S(=O)(=O)c2cccc3c(N(C)C)cccc23)CC1 [Compound 13, (S)-Benzyl (6-Acrylamido-1-(4-((5-(dimethylamino)naphthalen-1-yl)sulfonyl)piperazin-1-yl)-1-oxohexan-2-yl)carbamate]
GTP binding ability of hTG2 after incubation with inhibitor [4]: abolishing GTP binding nearly completely | Hill slope ([5]; three-parameter sigmoidal fit of invasion data, maximum fixed at 100): 1.16 ± 0.13 | recovered hTG2 activity after filtration (10 kDa cutoff) and dilution [6]: no recovered activity | kinact/KI [1]: > 1670 M⁻¹ s⁻¹ | reduction in the inhibition binding constant compared to 3 ([1]; hTG2): greater than 2 fold

C=CC(=O)NCCCC[C@H](NC(=O)OCc1ccccc1)C(N)=O [Compound 4, (S)-Benzyl-(6-acrylamido-1-amino-1-oxohexan-2-yl)carbamate]
GTP binding ability of hTG2 after incubation with inhibitor [4]: able to abolish GTP binding

NC(=O)CI [iodoacetamide, reference compound]
GTP binding ability of hTG2 after incubation with inhibitor [4]: did not perturb its GTP-binding ability | inhibition of hTG2 acyltransferase activity ([1]; in words): irreversible inhibition

C=CC(=O)NCCCC[C@H](NC(=O)OCc1ccccc1)C(=O)NCCOCCOCCNS(=O)(=O)c1cccc2c(N(C)C)cccc12 [Compound 3, (S)-Benzyl-(1-((5-(dimethylamino)naphthalene)-1-sulfonamido)-10,17-dioxo-3,6-dioxa-9,16-diazanonadec-18-en-11-yl)carbamate]
pEC50 ([5]; Homo sapiens, SCC-13, 18 h, read-out: EC50, inhibition of ECS cell invasion): < 4.70 | kinact ([2]; gplTG2): 0.483 min⁻¹ | ECS cell proliferation and survival ([7]; 20 μM): reduced ECS cell proliferation and survival | effect in TG2 knockout ECS cells ([7]; TG2 knockout ECS cells): no effect | growth of mouse xenograft tumors [8]: reduced the growth | increase in overall efficiency (kinact/KI), hTG2 versus gplTG2 ([1]; hTG2 compared to gplTG2): 5 fold

C=CC(=O)NCCCC[C@H](NC(=O)OCc1ccccc1)C(=O)N1CCN(C(=O)c2cccc3ccccc23)CC1 [Compound 49, (S)-Benzyl (1-(4-(1-Naphthoyl)piperazin-1-yl)-6-acrylamido-1-ox-ohexan-2-yl)carbamate]
GTP binding ability of hTG2 after incubation with inhibitor [4]: abolishing GTP binding nearly completely | kinact/KI [1]: > 1670 M⁻¹ s⁻¹
